Laboratory results reported in ChEMBL document CHEMBL1909046, “DrugMatrix in vitro pharmacology data”.

Experiments:
Melanocortin receptor 4 = Melanocortin receptor 4 (Homo sapiens, UniProt P32245); type: cell membranes, HEK293, Membrane; settings: hek293; also: in other assays of this panel Not Active means under 50% inhibition at 10 µM
[1] = target: T1, C-X-C chemokine receptor type 1 (Homo sapiens, UniProt P25024); also: in other assays of this panel Not Active means under 50% inhibition at 10 µM
T1 sequence (P25024 whole entry): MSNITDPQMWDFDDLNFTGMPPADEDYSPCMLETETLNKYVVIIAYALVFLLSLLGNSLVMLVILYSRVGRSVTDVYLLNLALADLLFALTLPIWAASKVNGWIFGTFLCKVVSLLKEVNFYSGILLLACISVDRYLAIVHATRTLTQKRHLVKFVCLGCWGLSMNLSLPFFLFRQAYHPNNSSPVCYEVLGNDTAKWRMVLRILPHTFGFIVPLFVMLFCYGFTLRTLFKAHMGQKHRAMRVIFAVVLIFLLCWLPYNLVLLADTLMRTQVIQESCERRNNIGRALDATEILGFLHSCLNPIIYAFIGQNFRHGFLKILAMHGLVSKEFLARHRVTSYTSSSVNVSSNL

Histamine H2 receptor = Histamine H2 receptor (Homo sapiens, UniProt P25021); type: cell membranes, CHO-K1, Membrane; settings: cho-k1; also: in other assays of this panel Not Active means under 50% inhibition at 10 µM
[2] = target: Aldo-keto reductase family 1 member B1 (Rattus norvegicus, UniProt P07943); test: biochemical; type: tissue-based, Lens of camera-type eye;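 also: inhibition of aldose reductase enzyme activity, measured with DL-glyceraldehyde as the substrate; in other assays of this panel Not Active means under 50% inhibition at 10 µM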
[3] = DRUGMATRIX: Glutamate, NMDA, Agonism radioligand binding (ligand: [3H] CGP-39653); type: cell membranes, Rattus norvegicus, Wistar, Cerebral cortex, Membrane; settings: Not Active = under 50% inhibition at 10 µM
[4] = target: Beta-2 adrenergic receptor (Homo sapiens, UniProt P07550); test: DRUGMATRIX: Adrenergic beta2 radioligand binding (ligand: [3H] CGP-12177); type: cell membranes, Membrane; settings: cho; Not Active = under 50% inhibition at 10 µM
[5] = target: T2, Alpha-1A adrenergic receptor (Rattus norvegicus, UniProt P43140); test: DRUGMATRIX: Alpha-1A adrenergic receptor radioligand binding (ligand: prazosin); type: cell membranes, Wistar, Submaxillary gland, Membrane; settings: Not Active = under 50% inhibition at 10 µM
T2 sequence (P43140 whole entry): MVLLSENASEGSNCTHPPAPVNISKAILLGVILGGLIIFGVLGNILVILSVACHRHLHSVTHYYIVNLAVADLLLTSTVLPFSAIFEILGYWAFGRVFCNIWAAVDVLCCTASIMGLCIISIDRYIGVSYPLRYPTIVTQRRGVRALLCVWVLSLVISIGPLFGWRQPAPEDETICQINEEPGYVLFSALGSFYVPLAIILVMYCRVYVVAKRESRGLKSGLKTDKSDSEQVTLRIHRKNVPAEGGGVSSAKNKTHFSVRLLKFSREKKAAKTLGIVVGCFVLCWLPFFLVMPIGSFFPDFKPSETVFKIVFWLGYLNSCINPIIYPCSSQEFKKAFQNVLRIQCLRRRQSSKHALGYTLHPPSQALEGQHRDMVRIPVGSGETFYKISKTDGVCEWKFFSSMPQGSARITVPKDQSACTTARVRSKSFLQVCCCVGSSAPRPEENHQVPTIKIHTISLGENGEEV

Beta-2 adrenergic receptor, sequence (P07550 whole entry): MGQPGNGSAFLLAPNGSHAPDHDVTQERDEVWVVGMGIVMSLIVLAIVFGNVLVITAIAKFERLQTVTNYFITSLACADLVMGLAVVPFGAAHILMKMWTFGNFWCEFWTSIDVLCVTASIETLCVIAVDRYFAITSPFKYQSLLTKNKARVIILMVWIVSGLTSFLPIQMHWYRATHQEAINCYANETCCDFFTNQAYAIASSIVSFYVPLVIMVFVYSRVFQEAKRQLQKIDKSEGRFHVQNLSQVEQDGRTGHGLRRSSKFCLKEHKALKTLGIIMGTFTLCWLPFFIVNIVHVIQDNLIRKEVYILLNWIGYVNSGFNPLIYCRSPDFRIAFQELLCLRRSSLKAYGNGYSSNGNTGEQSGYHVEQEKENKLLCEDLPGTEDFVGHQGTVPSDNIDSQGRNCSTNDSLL
Melanocortin receptor 4, sequence (P32245 whole entry): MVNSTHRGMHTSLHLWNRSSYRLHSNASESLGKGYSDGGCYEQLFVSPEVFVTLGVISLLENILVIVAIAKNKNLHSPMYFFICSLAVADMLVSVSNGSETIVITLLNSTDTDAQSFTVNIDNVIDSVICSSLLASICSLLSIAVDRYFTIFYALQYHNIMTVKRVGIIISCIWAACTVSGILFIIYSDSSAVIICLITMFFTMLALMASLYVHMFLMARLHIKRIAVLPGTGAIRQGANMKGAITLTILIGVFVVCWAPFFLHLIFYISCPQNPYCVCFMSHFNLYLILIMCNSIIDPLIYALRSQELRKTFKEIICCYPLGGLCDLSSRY
Histamine H2 receptor, sequence (P25021 whole entry): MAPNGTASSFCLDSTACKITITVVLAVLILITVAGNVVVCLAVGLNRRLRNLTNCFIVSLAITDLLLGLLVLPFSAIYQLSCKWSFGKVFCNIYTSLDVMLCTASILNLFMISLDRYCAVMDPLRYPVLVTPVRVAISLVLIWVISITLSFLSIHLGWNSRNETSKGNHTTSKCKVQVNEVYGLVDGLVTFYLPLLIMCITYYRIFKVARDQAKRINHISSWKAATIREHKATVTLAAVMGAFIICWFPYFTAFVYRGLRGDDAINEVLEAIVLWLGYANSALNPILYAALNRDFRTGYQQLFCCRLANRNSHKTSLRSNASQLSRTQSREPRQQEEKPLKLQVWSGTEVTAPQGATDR

Structure (SMILES): CC(C)[C@H]1C(=O)N2CCC[C@H]2[C@]2(O)O[C@](NC(=O)[C@@H]3C=C4c5cccc6[nH]cc(c56)C[C@H]4N(C)C3)(C(C)C)C(=O)N12 [ERGOCORNINE]
- IC50 (Melanocortin receptor 4): Not Active
- IC50 [1]: Not Active
- IC50 (Histamine H2 receptor): Not Active
- IC50 [2]: Not Active
- IC50 [3]: Not Active
- Ki [3]: Not Active
- IC50 [4]: Not Active
- IC50 ([5]; read-out: IC50): 11 nM
- Ki ([5]; read-out: Ki): 4.47 nM

Structure (SMILES): C[C@]12CC[C@@H]3c4ccc(O)cc4CC[C@H]3[C@@H]1CCC2=O [ESTRONE]
- IC50 (Melanocortin receptor 4): Not Active
- IC50 [1]: Not Active
- IC50 (Histamine H2 receptor): Not Active
- IC50 [2]: Not Active
- IC50 [3]: Not Active
- Ki [3]: Not Active
- IC50 [4]: Not Active
- IC50 [5]: Not Active

Structure (SMILES): OC(Cn1cncn1)(Cn1cncn1)c1ccc(F)cc1F [FLUCONAZOLE]
- IC50 (Melanocortin receptor 4): Not Active
- IC50 [1]: Not Active
- IC50 (Histamine H2 receptor): Not Active
- IC50 [2]: Not Active
- IC50 [3]: Not Active
- Ki [3]: Not Active
- IC50 [4]: Not Active
- IC50 [5]: Not Active

Structure (SMILES): CC(C)C(=O)Nc1ccc([N+](=O)[O-])c(C(F)(F)F)c1 [FLUTAMIDE]
- IC50 (Melanocortin receptor 4): Not Active
- IC50 [1]: Not Active
- IC50 (Histamine H2 receptor): Not Active
- IC50 [2]: Not Active
- IC50 [3]: Not Active
- Ki [3]: Not Active
- IC50 [4]: Not Active
- IC50 [5]: Not Active

Structure (SMILES): N=C(N)NCCN1CCCCCCC1 [GUANETHIDINE]
- IC50 (Melanocortin receptor 4): Not Active
- IC50 [1]: Not Active
- IC50 (Histamine H2 receptor): Not Active
- IC50 [2]: Not Active
- IC50 [3]: Not Active
- Ki [3]: Not Active
- IC50 [4]: Not Active
- IC50 [5]: Not Active

Structure (SMILES): CC1(C)O[C@@H]2C[C@H]3[C@@H]4CCC5=CC(=O)CC[C@]5(C)[C@@]4(F)[C@@H](O)C[C@]3(C)[C@]2(C(=O)CCl)O1 [HALCINONIDE]
- IC50 (Melanocortin receptor 4): Not Active
- IC50 [1]: Not Active
- IC50 (Histamine H2 receptor): Not Active
- IC50 [2]: Not Active
- IC50 [3]: Not Active
- Ki [3]: Not Active
- IC50 [4]: Not Active
- IC50 [5]: Not Active

Structure (SMILES): O=c1[nH]c(=O)n([C@H]2C[C@H](O)[C@@H](CO)O2)cc1I [IDOXURIDINE]
- IC50 (Melanocortin receptor 4): Not Active
- IC50 [1]: Not Active
- IC50 (Histamine H2 receptor): Not Active
- IC50 [2]: Not Active
- IC50 [3]: Not Active
- Ki [3]: Not Active
- IC50 [4]: Not Active
- IC50 [5]: Not Active

Structure (SMILES): CC1Cc2ccccc2N1NC(=O)c1ccc(Cl)c(S(N)(=O)=O)c1 (stereo not given) [INDAPAMIDE]
- IC50 (Melanocortin receptor 4): Not Active
- IC50 [1]: Not Active
- IC50 (Histamine H2 receptor): Not Active
- IC50 [2]: Not Active
- IC50 [3]: Not Active
- Ki [3]: Not Active
- IC50 [4]: Not Active
- IC50 [5]: Not Active

Structure (SMILES): Nc1nc(N)nc(-c2cc(Cl)ccc2Cl)n1.O=C(O)/C=C\C(=O)O [IRSOGLADINE MALEATE]
- IC50 (Melanocortin receptor 4): Not Active
- IC50 [1]: Not Active
- IC50 (Histamine H2 receptor): Not Active
- IC50 [2]: Not Active
- IC50 [3]: Not Active
- Ki [3]: Not Active
- IC50 [4]: Not Active
- IC50 [5]: Not Active

Structure (SMILES): CCC(C)n1ncn(-c2ccc(N3CCN(c4ccc(OCC5COC(Cn6cncn6)(c6ccc(Cl)cc6Cl)O5)cc4)CC3)cc2)c1=O (stereo not given) [ITRACONAZOLE]
- IC50 (Melanocortin receptor 4): Not Active
- IC50 [1]: Not Active
- IC50 (Histamine H2 receptor): Not Active
- IC50 [2]: Not Active
- IC50 [3]: Not Active
- Ki [3]: Not Active
- IC50 [4]: Not Active
- IC50 [5]: Not Active

Structure (SMILES): CCCCN1CCCC[C@H]1C(=O)Nc1c(C)cccc1C [LEVOBUPIVACAINE]
- IC50 (Melanocortin receptor 4): Not Active
- IC50 [1]: Not Active
- IC50 (Histamine H2 receptor): Not Active
- IC50 [2]: Not Active
- IC50 [3]: Not Active
- Ki [3]: Not Active
- IC50 [4]: Not Active
- IC50 [5]: Not Active

Structure (SMILES): CCCCc1nc(Cl)c(CO)n1Cc1ccc(-c2ccccc2-c2nnn[nH]2)cc1 [LOSARTAN]
- IC50 (Melanocortin receptor 4): Not Active
- IC50 [1]: Not Active
- IC50 (Histamine H2 receptor): Not Active
- IC50 [2]: Not Active
- IC50 [3]: Not Active
- Ki [3]: Not Active
- IC50 [4]: Not Active
- IC50 [5]: Not Active

Structure (SMILES): Sc1ncnc2nc[nH]c12 [MERCAPTOPURINE ANHYDROUS]
- IC50 (Melanocortin receptor 4): Not Active
- IC50 [1]: Not Active
- IC50 (Histamine H2 receptor): Not Active
- IC50 [2]: Not Active
- IC50 [3]: Not Active
- Ki [3]: Not Active
- IC50 [4]: Not Active
- IC50 [5]: Not Active
